Measurements published in patent US20140243334A1, “SUBSTITUTED HYDOXAMIC ACIDS AND USES THEREOF” (Millennium Pharmaceuticals, Inc., priority 2010, published 2014).

target: T1, purified human HDAC6 (Homo sapiens, UniProt Q9UBN7); test: HDAC6 Enzyme Assay; type: biochemical; conditions: HDAC6 inhibition at a compound concentration of 0.412 μM; read-out: Percent Inhibition at 0.412 μM
T1 construct: purchased BPS Bioscience 5006
T1 sequence (Q9UBN7 1-1215): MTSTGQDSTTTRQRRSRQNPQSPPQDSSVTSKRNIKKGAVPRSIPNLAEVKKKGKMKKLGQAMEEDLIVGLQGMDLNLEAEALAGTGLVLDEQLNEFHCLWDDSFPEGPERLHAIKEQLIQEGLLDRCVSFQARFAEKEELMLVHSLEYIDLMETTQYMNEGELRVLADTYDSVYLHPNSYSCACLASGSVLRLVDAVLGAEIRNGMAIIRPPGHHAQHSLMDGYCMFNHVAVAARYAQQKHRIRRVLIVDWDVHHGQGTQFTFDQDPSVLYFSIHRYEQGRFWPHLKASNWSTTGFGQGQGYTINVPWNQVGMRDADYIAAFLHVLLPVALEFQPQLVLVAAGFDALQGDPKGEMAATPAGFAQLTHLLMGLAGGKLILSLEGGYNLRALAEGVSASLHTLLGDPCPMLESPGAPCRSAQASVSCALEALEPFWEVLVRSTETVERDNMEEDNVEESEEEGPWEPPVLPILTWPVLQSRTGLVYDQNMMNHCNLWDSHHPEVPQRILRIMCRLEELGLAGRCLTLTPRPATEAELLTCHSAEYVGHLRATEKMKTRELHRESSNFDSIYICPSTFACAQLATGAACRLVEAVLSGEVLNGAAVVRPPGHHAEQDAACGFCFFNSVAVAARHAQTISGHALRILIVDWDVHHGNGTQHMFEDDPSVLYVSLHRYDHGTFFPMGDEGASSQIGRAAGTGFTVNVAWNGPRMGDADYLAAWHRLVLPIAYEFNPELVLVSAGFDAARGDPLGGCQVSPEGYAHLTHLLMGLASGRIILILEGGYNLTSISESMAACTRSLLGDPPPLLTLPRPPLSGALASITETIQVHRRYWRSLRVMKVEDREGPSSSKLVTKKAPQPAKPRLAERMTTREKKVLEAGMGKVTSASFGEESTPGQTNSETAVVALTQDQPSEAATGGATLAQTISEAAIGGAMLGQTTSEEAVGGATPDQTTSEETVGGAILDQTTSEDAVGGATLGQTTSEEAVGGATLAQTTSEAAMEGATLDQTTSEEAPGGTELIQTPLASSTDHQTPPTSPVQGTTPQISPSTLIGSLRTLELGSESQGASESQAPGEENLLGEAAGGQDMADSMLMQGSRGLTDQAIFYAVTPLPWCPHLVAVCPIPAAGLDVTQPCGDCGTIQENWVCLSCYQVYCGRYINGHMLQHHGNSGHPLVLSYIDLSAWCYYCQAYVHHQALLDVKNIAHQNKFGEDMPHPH

Compound	inhibition at 0.412 µM
COc1ccc(-c2ccc3c(c2)CC(C(=O)NO)CC3)cc1F (stereo not drawn) [Compound I-101, 7-(3-fluoro-4-methoxyphenyl)-N-hydroxy-1,2,3,4-tetrahydronaphthalene-2-carboxamide]	82%
O=C(NO)C1CCc2ccc(-c3ccc(C(=O)N4CCCC4)c(F)c3)cc2C1 (stereo not drawn) [Compound I-118, 7-[3-fluoro-4-(pyrrolidin-1-ylcarbonyl)phenyl]-N-hydroxy-1,2,3,4-tetrahydronaphthalene-2-carboxamide]	77%
O=C(NO)C1CCc2cc(F)c(Oc3ccnc(NC(=O)C4CC4)c3)cc2C1 (stereo not drawn) [Compound I-32, 7-({2-[(cyclopropylcarbonyl)amino]pyridin-4-yl}oxy)-6-fluoro-N-hydroxy-1,2,3,4-tetrahydronaphthalene-2-carboxamide]	91%
CC(C)(C)OC(=O)Nc1ccc2c(c1)CC(C(=O)NO)CC2 (stereo not drawn) [Compound I-20, tert-butyl {7-[(hydroxyamino)carbonyl]-5,6,7,8-tetrahydronaphthalen-2-yl}carbamate]	61%
O=C(NO)C1CCc2ccc(-c3ccc4c(c3)CCO4)cc2C1 (stereo not drawn) [Compound I-90, 7-(2,3-dihydro-1-benzofuran-5-yl)-N-hydroxy-1,2,3,4-tetrahydronaphthalene-2-carboxamide]	85%
CC(C)Cc1ccc(-c2ccc3c(c2)CC(C(=O)NO)CC3)cc1 (stereo not drawn) [Compound I-122, N-hydroxy-7-(4-isobutylphenyl)-1,2,3,4-tetrahydronaphthalene-2-carboxamide]	34%
O=C(NO)C1CCc2ccc(-c3ccc4[nH]ccc4c3)cc2C1 (stereo not drawn) [Compound I-75, N-hydroxy-7-(1H-indol-5-yl)-1,2,3,4-tetrahydronaphthalene-2-carboxamide]	77%
O=C(NO)C1CCc2ccc(-c3ccc4nonc4c3)cc2C1 (stereo not drawn) [Compound I-91, 7-(2,1,3-benzoxadiazol-5-yl)-N-hydroxy-1,2,3,4-tetrahydronaphthalene-2-carboxamide]	77%
N#Cc1cc(-c2ccc3c(c2)CC(C(=O)NO)CC3)ccc1F (stereo not drawn) [Compound I-105, 7-(3-cyano-4-fluorophenyl)-N-hydroxy-1,2,3,4-tetrahydronaphthalene-2-carboxamide]	61%
O=C(NO)C1CCc2cc(Nc3ccc(Cl)cc3)ccc2C1 (stereo not drawn) [Compound I-78, 6-[(4-chlorophenyl)amino]-N-hydroxy-1,2,3,4-tetrahydronaphthalene-2-carboxamide]	48%
O=C(NO)C1CCc2ccc(-c3ccc(S(=O)(=O)N4CCCCC4)cc3)cc2C1 (stereo not drawn) [Compound I-123, N-hydroxy-7-[4-(piperidin-1-ylsulfonyl)phenyl]-1,2,3,4-tetrahydronaphthalene-2-carboxamide]	61%
Cc1nnc(-c2cccc(-c3ccc4c(c3)CC(C(=O)NO)CC4)c2)o1 (stereo not drawn) [Compound I-88, N-hydroxy-7-[3-(5-methyl-1,3,4-oxadiazol-2-yl)phenyl]-1,2,3,4-tetrahydronaphthalene-2-carboxamide]	79%
O=C(NO)C1CCc2ccc(-c3c[nH]c4ccccc34)cc2C1 (stereo not drawn) [Compound I-82, N-hydroxy-7-(1H-indol-3-yl)-1,2,3,4-tetrahydronaphthalene-2-carboxamide]	83%
O=C(NO)C1CCc2ccc(-c3cccc(-c4ccccc4)c3)cc2C1 (stereo not drawn) [Compound I-110, 7-biphenyl-3-yl-N-hydroxy-1,2,3,4-tetrahydronaphthalene-2-carboxamide]	83%
Cn1cc(-c2cc(C(=O)Nc3ccc4c(c3)CC(C(=O)NO)CC4)cc(C(F)(F)F)c2)cn1 (stereo not drawn) [Compound I-35, N-hydroxy-7-{[3-(1-methyl-1H-pyrazol-4-yl)-5-(trifluoromethyl)benzoyl]amino}-1,2,3,4-tetrahydronaphthalene-2-carboxamide]	87%
COc1cccc2c1CC(C(=O)NO)CC2 (stereo not drawn) [Compound I-15, N-hydroxy-8-methoxy-1,2,3,4-tetrahydronaphthalene-2-carboxamide]	25%
O=C(NO)C1CCc2cc(-c3ccc(Cl)cc3)ccc2C1 (stereo not drawn) [Compound I-65, 6-(4-chlorophenyl)-N-hydroxy-1,2,3,4-tetrahydronaphthalene-2-carboxamide]	68%

Results, then the compound that gave them:

inhibition at 0.412 µM	Compound
43%	COc1cccc(Nc2ccc3c(c2)CCC(C(=O)NO)C3)c1 (stereo not drawn) [Compound I-79, N-hydroxy-6-[(3-methoxyphenyl)amino]-1,2,3,4-tetrahydronaphthalene-2-carboxamide]
65%	O=C(NO)C1CCc2ccc(NS(=O)(=O)c3ccccc3)cc2C1 (stereo not drawn) [Compound I-28, N-hydroxy-7-[(phenylsulfonyl)amino]-1,2,3,4-tetrahydronaphthalene-2-carboxamide]
27%	O=C(NO)C1CCc2cc(Oc3ccccc3)ccc2C1 (stereo not drawn) [Compound I-25, N-hydroxy-6-phenoxy-1,2,3,4-tetrahydronaphthalene-2-carboxamide]
43%	COc1ccc(Nc2ccc3c(c2)CCC(C(=O)NO)C3)cc1 (stereo not drawn) [Compound I-80, N-hydroxy-6-[(4-methoxyphenyl)amino]-1,2,3,4-tetrahydronaphthalene-2-carboxamide]
86%	CC(=O)Nc1cccc(-c2ccc3c(c2)CC(C(=O)NO)CC3)c1 (stereo not drawn) [Compound I-24, 7-[3-(acetylamino)phenyl]-N-hydroxy-1,2,3,4-tetrahydronaphthalene-2-carboxamide]
78%	COc1ccc(-c2ccc3c(c2)CC(C(=O)NO)CC3)c(C)c1 (stereo not drawn) [Compound I-95, N-hydroxy-7-(4-methoxy-2-methylphenyl)-1,2,3,4-tetrahydronaphthalene-2-carboxamide]
93%	CS(=O)(=O)Nc1cccc(Oc2ccc3c(c2)CC(C(=O)NO)CC3)c1 (stereo not drawn) [Compound I-55, N-hydroxy-7-{3-[(methylsulfonyl)amino]phenoxy}-1,2,3,4-tetrahydronaphthalene-2-carboxamide]
81%	COc1ccc(C(=O)Nc2ccc3c(c2)CC(C(=O)NO)CC3)cc1 (stereo not drawn) [Compound I-29, N-hydroxy-7-[(4-methoxybenzoyl)amino]-1,2,3,4-tetrahydronaphthalene-2-carboxamide]
84%	O=C(NO)C1CCc2ccc(Oc3cccc(NC(=O)C4CC4)c3)cc2C1 (stereo not drawn) [Compound I-50, 7-{3-[(cyclopropylcarbonyl)amino]phenoxy}-N-hydroxy-1,2,3,4-tetrahydronaphthalene-2-carboxamide]
90%	O=C(NO)C1CCc2ccc(-c3cccc(NC(=O)C4CC4)c3)cc2C1 (stereo not drawn) [Compound I-64, 7-{3-[(cyclopropylcarbonyl)amino]phenyl}-N-hydroxy-1,2,3,4-tetrahydronaphthalene-2-carboxamide]
64%	O=C(NO)C1CCc2ccc(Oc3cccc(OCc4ccccc4)c3)cc2C1 (stereo not drawn) [Compound I-41, 7-[3-(benzyloxy)phenoxy]-N-hydroxy-1,2,3,4-tetrahydronaphthalene-2-carboxamide]
86%	O=C(Nc1ccccc1)Nc1ccc2c(c1)CC(C(=O)NO)CC2 (stereo not drawn) [Compound I-30, 7-[(Anilinocarbonyl)amino]-N-hydroxy-1,2,3,4-tetrahydronaphthalene-2-carboxamide]
74%	CC(C)(C)OC(=O)Nc1ccc(Oc2ccc3c(c2)CC(C(=O)NO)CC3)cc1 (stereo not drawn) [Compound I-52, tert-butyl [4-({7-[(hydroxyamino)carbonyl]-5,6,7,8-tetrahydronaphthalen-2-yl}oxy)phenyl]carbamate]
